Test results taken from US4200646A, “Method of controlling the growth of microorganisms using nitroalkyl thiocyanates” (International Minerals & Chemical Corporation, priority 1979, dated 1980).
In brackets after ≈: the same amount, converted by molar mass. Entries after “also recorded” stand apart in the source; their conditions may differ. Like-named read-outs stand apart in the source and are kept apart here.

Experiments:
microorganisms = assay: Control of growth of microorganisms in metal working fluids; conditions: 500-1000 ppm or more
bacteria and fungi = assay: Antimicrobial activity against bacteria and fungi; type: cell-based
Streptococcus fecalis = assay: Tube dilution method, minimum inhibitory concentration; type: cell-based
Mycobacterium ranae = assay: as above; type: cell-based
[1] = test system: Pasteurella pseudotuberculosis; assay: microbe, parasite or virus in culture; type: cell-based; conditions: Yersinia pseudotuberculosis, pH 7.3, read-out: Inhibitory Concn (minimum inhibitory concentration)
Escherichia coli = assay: Tube dilution method, minimum inhibitory concentration; type: cell-based
Pseudomonas aeruginosa = assay: as above; type: cell-based
Staphyloccus aureus = assay: as above; type: cell-based
Shigella dysenteriae = assay: as above; type: cell-based; conditions: pH 7.3, read-out: Inhibitory Concn (minimum inhibitory concentration)
[2] = test system: Streptococcus hemolyticus; assay: as above; type: cell-based; conditions: Streptococcus pyogenes
Aspergillus niger = assay: as above; type: cell-based
Aspergillus fumigatus = assay: as above; type: cell-based
Penicillium sp. = assay: as above; type: cell-based
[3] = LD50 in mice by oral administration; conditions: mouse, in vivo
Description: The LD50 in mice by oral administration was determined to be 500 mg/kg.

microbial contamination = assay: Microbial contamination of cutting oil emulsion in use; conditions: emulsion with P-2216 0.1, light mineral oil 20, water 76.9, emulsifying agent 3 parts
Description: A cutting oil emulsion is prepared according to the following formula: […]
Light mineral oil 20 parts

Candida albicans = assay: Tube dilution method, minimum inhibitory concentration; type: cell-based
[4] = pH 7.3, read-out: Inhibitory Concn (minimum inhibitory concentration)
[5] = pH 5.6, read-out: Inhibitory Concn (minimum inhibitory concentration)
[6] = trypticase soya broth pH 7.3, range between highest concentration permitting growth and lowest preventing growth, read-out: Inhibitory Concn (minimum inhibitory concentration)
[7] = Sabouraud broth pH 5.6, range between highest concentration permitting growth and lowest preventing growth, read-out: Inhibitory Concn (minimum inhibitory concentration)

CC(SC#N)[N+](=O)[O-] (centres unmarked) [1-nitroethyl thiocyanate]
control of growth of microorganisms in metal working fluids (microorganisms): controls the growth of microorganisms for a prolonged period | antimicrobial activity (in words) (bacteria and fungi): effective against a wide spectrum of bacteria and fungi

CCC(SC#N)[N+](=O)[O-] (centres unmarked) [1-nitropropyl thiocyanate]
control of growth of microorganisms in metal working fluids (microorganisms): controls the growth of microorganisms for a prolonged period | antimicrobial activity (in words) (bacteria and fungi): effective against a wide spectrum of bacteria and fungi

CC(C)(SC#N)[N+](=O)[O-] [Example P-2216, 1-methyl-1-nitroethyl thiocyanate]
MIC (Streptococcus fecalis; Streptococcus, pH 7.3, read-out: Inhibitory Concn (minimum inhibitory concentration)): 50 to 100 µg/mL (≈ 342 to 684 µM) | MIC (Mycobacterium ranae; Mycobacterium, pH 7.3, read-out: Inhibitory Concn (minimum inhibitory concentration)): 1 to 10 µg/mL (≈ 6.84 to 68.4 µM) | MIC [1]: 1 to 10 µg/mL (≈ 6.84 to 68.4 µM) | MIC (Escherichia coli; [4]): 10 to 50 µg/mL (≈ 68.4 to 342 µM) | MIC (Pseudomonas aeruginosa; [4]): 10 to 50 µg/mL (≈ 68.4 to 342 µM) | MIC (Staphyloccus aureus; [4]): 1 to 10 µg/mL (≈ 6.84 to 68.4 µM) | MIC (Shigella dysenteriae): 10 to 50 µg/mL (≈ 68.4 to 342 µM) | MIC [2, 4]: 50 to 100 µg/mL (≈ 342 to 684 µM) | MIC (Aspergillus niger; [5]): 10 to 50 µg/mL (≈ 68.4 to 342 µM) | MIC (Aspergillus fumigatus; [5]): 1 to 10 µg/mL (≈ 6.84 to 68.4 µM) | MIC (Penicillium sp.; Penicillium, pH 5.6, read-out: Inhibitory Concn (minimum inhibitory concentration)): 10 to 50 µg/mL (≈ 68.4 to 342 µM) | LD50 ([3]; mice, oral administration, read-out: LD50): 500 mg/kg | freedom from microbial contamination when used as a cutting oil (microbial contamination): remains free from microbial contamination for a long period of time | MIC (Candida albicans; [5]): 1 to 10 µg/mL (≈ 6.84 to 68.4 µM)

N#CSC1([N+](=O)[O-])CCCCC1 [Example P-2217, 1-nitrocyclohexyl thiocyanate]
MIC (Streptococcus fecalis; Streptococcus fecalis, trypticase soya broth pH 7.3, range between highest concentration permitting growth and lowest preventing growth, read-out: Inhibitory Concn (minimum inhibitory concentration)): 50 to 100 µg/mL (≈ 268 to 537 µM) | MIC (Mycobacterium ranae; Mycobacterium ranae, trypticase soya broth pH 7.3, range between highest concentration permitting growth and lowest preventing growth, read-out: Inhibitory Concn (minimum inhibitory concentration)): 1 to 10 µg/mL (≈ 5.37 to 53.7 µM) | MIC [1]: 10 to 50 µg/mL (≈ 53.7 to 268 µM) | MIC (Escherichia coli; [6]): 10 to 50 µg/mL (≈ 53.7 to 268 µM) | MIC (Pseudomonas aeruginosa; [6]): 10 to 50 µg/mL (≈ 53.7 to 268 µM) | MIC (Staphyloccus aureus; Staphyloccus aureus, trypticase soya broth pH 7.3, range between highest concentration permitting growth and lowest preventing growth, read-out: Inhibitory Concn (minimum inhibitory concentration)): 1 to 10 µg/mL (≈ 5.37 to 53.7 µM) | MIC (Shigella dysenteriae): 50 to 100 µg/mL (≈ 268 to 537 µM) | MIC ([2]; Streptococcus hemolyticus, trypticase soya broth pH 7.3, range between highest concentration permitting growth and lowest preventing growth, read-out: Inhibitory Concn (minimum inhibitory concentration)): 50 to 100 µg/mL (≈ 268 to 537 µM) | MIC (Aspergillus niger; [7]): 10 to 50 µg/mL (≈ 53.7 to 268 µM) | MIC (Aspergillus fumigatus; [7]): 1 to 10 µg/mL (≈ 5.37 to 53.7 µM) | MIC (Penicillium sp.; Penicillium sp., Sabouraud broth pH 5.6, range between highest concentration permitting growth and lowest preventing growth, read-out: Inhibitory Concn (minimum inhibitory concentration)): 10 to 50 µg/mL (≈ 53.7 to 268 µM) | LD50 ([3]; oral, species not restated in Example 5 (mice in Example 1), read-out: oral LD50): 150 mg/kg | control of growth of microorganisms in metal working fluids (microorganisms): controls the growth of microorganisms for a prolonged period | antimicrobial activity (in words) (bacteria and fungi): effective against both bacteria and fungi; also recorded: effective against a wide spectrum of bacteria and fungi | MIC (Candida albicans; [7]): 10 to 50 µg/mL (≈ 53.7 to 268 µM)

N#CSC[N+](=O)[O-] [nitromethyl thiocyanate]
control of growth of microorganisms in metal working fluids (microorganisms): controls the growth of microorganisms for a prolonged period | antimicrobial activity (in words) (bacteria and fungi): effective against a wide spectrum of bacteria and fungi
